In patent US12723063B2, “GIPR-agonist compounds” (Eli Lilly and Company, priority 2019, dated 2026) one finds Ki data, which are given here for 2 compounds.

*1 amine or outer side, *2 acyl side, *3 side chain or, on linkers, in order; H or OH if unused. Where a SMILES comes first, the peptide text is derived from it. Side-chain parts run from the residue outwards. [ ]: non-standard residue; d: D form. The star is where a group is joined. C20 diacid = O=C(O)CCCCCCCCCCCCCCCCCCC(=O)*; αMePhe(2-F) = C[C@](N)(Cc1ccccc1F)C(=O)O; γGlu = O=C(O)[C@H](CCC(=O)[*:2])N[*:1]; αMeF = C[C@](N)(Cc1ccccc1)C(=O)O; 4Pal = N[C@@H](Cc1ccncc1)C(=O)O; αMeL = CC(C)C[C@](C)(N)C(=O)O; AEEA = NCCOCCOCC(=O)O; Aib = CC(C)(N)C(=O)O

Test [1] addresses T1, human GcgR (Homo sapiens, UniProt P47871).
T1 construct: expressed in transfected cells; crude membranes
Briefly: [125I]-Glucagon binding, SPA with WGA beads, 0.1% bacitracin. Conditions: geometric mean, read-out: hGcgR Ki. The method, boiled down: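 SPA competition binding with WGA beads on crude membranes from HEK293 cells stably expressing hGcgR. Buffer: 25 mM HEPES pH 7.4, 2.5 mM CaCl2, 1 mM MgCl2, 0.1% bacitracin, 0.003% Tween-20; 10-point 3-fold dilutions, NSB with 1 μM Gcg.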

Test [2] deals with T2, human GIPR (Homo sapiens, UniProt P48546).
T2 construct: expressed in transfected cells; crude membranes
T2 sequence (P48546 22-466): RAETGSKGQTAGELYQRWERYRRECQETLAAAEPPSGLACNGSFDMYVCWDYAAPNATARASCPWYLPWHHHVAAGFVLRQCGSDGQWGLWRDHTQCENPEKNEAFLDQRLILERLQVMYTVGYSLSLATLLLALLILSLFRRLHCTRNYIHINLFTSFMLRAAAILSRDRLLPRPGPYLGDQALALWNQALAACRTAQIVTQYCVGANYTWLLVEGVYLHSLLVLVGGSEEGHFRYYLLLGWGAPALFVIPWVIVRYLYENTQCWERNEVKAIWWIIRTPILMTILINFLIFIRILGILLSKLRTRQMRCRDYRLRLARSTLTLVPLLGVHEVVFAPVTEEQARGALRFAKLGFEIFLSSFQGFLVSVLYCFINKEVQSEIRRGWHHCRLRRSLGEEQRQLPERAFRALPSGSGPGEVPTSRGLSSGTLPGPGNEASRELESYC
Briefly: [125I]-GIP binding, SPA with WGA beads, 0.1% bacitracin. Conditions: geometric mean, read-out: hGIPR Ki. An outline of the steps: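 Ki values are geometric means (SEM, n independent days), derived from four-parameter nonlinear regression of IC50. Membranes came from hGIPR-expressing CHO cells.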

T1 sequence (P47871 26-477): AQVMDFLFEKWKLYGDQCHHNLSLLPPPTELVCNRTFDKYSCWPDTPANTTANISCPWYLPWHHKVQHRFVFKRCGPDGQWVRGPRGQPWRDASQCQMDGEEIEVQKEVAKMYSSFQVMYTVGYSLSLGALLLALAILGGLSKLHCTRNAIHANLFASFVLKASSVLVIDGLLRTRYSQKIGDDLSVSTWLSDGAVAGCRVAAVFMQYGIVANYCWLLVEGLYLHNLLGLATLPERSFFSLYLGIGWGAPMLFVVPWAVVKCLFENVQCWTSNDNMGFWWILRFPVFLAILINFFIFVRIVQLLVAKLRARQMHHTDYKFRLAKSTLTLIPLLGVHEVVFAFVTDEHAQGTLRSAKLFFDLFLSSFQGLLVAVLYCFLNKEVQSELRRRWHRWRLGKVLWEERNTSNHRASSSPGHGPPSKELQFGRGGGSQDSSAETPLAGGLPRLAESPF

As to `CC[C@H](C)[C@H](NC(=O)[C@H](CO)NC(=O)[C@H](Cc1ccc(O)cc1)NC(=O)[C@H](CC(=O)O)NC(=O)[C@H](CO)NC(=O)[C@@H](NC(=O)[C@](C)(Cc1ccccc1)NC(=O)[C@@H](NC(=O)CNC(=O)[C@H](CCC(=O)O)NC(=O)C(C)(C)NC(=O)[C@@H](N)Cc1ccc(O)cc1)[C@@H](C)O)[C@@H](C)CC)C(=O)N[C@@](C)(CC(C)C)C(=O)N[C@@H](CC(C)C)C(=O)N[C@@H](CC(=O)O)C(=O)N[C@@H](CCCCN)C(=O)N[C@@H](CCCCNC(=O)COCCOCCNC(=O)COCCOCCNC(=O)CC[C@H](NC(=O)CCCCCCCCCCCCCCCCCCC(=O)O)C(=O)O)C(=O)N[C@@H](Cc1c[nH]cn1)C(=O)N[C@@H](CCC(N)=O)C(=O)NC(C)(C)C(=O)N[C@@H](CC(=O)O)C(=O)N[C@@H](Cc1ccccc1)C(=O)N[C@H](C(=O)N[C@@H](CCC(=O)O)C(=O)N[C@@H](Cc1ccncc1)C(=O)N[C@@H](CC(C)C)C(=O)N[C@@H](CC(C)C)C(=O)N[C@@H](C)C(=O)NCC(=O)NCC(=O)N1CCC[C@H]1C(=O)N[C@@H](CO)C(=O)N[C@@H](CO)C(=O)NCC(=O)N[C@@H](C)C(=O)N1CCC[C@H]1C(=O)N1CCC[C@H]1C(=O)N1CCC[C@H]1C(=O)N[C@@H](CO)C(N)=O)C(C)C` [Example 50] (H-Y[Aib]EGT[αMeF]ISDYSI[αMeL]LDKK([AEEA-AEEA-γGlu-C20 diacid])HQ[Aib]DFVE[4Pal]LLAGGPSSGAPPPS-NH2), the inhibition constant Ki in test [1] was 23.4 nM; in test [2], 0.0501 nM.

On to `CC[C@H](C)[C@H](NC(=O)[C@H](CO)NC(=O)[C@H](Cc1ccc(O)cc1)NC(=O)[C@H](CC(=O)O)NC(=O)[C@H](CO)NC(=O)[C@@H](NC(=O)[C@](C)(Cc1ccccc1F)NC(=O)[C@@H](NC(=O)CNC(=O)[C@H](CCC(=O)O)NC(=O)C(C)(C)NC(=O)[C@@H](N)Cc1ccc(O)cc1)[C@@H](C)O)[C@@H](C)CC)C(=O)N[C@@](C)(CC(C)C)C(=O)N[C@@H](CC(C)C)C(=O)N[C@@H](CC(=O)O)C(=O)N[C@@H](CCCCN)C(=O)N[C@@H](CCCCNC(=O)COCCOCCNC(=O)COCCOCCNC(=O)CC[C@H](NC(=O)CCCCCCCCCCCCCCCCCCC(=O)O)C(=O)O)C(=O)N[C@@H](Cc1c[nH]cn1)C(=O)N[C@@H](CCC(N)=O)C(=O)NC(C)(C)C(=O)N[C@@H](CC(=O)O)C(=O)N[C@@H](Cc1ccccc1)C(=O)N[C@H](C(=O)N[C@@H](CCC(=O)O)C(=O)N[C@@H](Cc1ccncc1)C(=O)N[C@@H](CC(C)C)C(=O)N[C@@H](CC(C)C)C(=O)N[C@@H](C)C(=O)NCC(=O)NCC(=O)N1CCC[C@H]1C(=O)N[C@@H](CO)C(=O)N[C@@H](CO)C(=O)NCC(=O)N[C@@H](C)C(=O)N1CCC[C@H]1C(=O)N1CCC[C@H]1C(=O)N1CCC[C@H]1C(=O)N[C@@H](CO)C(N)=O)C(C)C` [Example 51] (H-Y[Aib]EGT[αMePhe(2-F)]ISDYSI[αMeL]LDKK([AEEA-AEEA-γGlu-C20 diacid])HQ[Aib]DFVE[4Pal]LLAGGPSSGAPPPS-NH2), for which the Ki in test [1] is 26.7 nM; in test [2] it was 0.0386 nM.
